Assay results published in patent US8829007B2 (priority 2009, dated 2014).
Read-outs that look alike come from different tables or passages of the source.

Key:
[1] = system: influenza A virus (A/PR/8/34); experiment: microbe, parasite or virus in culture; format: cell-based
[2] = system: A/PR/8/34 influenza virus; experiment: microbe, parasite or virus in culture; format: cell-based
[3] = Influenza A virus, PR/8, MDCK, MDCK cells infected with A/PR/8/34, survival of infected cells, class symbols, read-out: IC50 (mean all)
[4] = Influenza A virus, PR/8, MDCK, MDCK cells infected with A/PR/8/34, replication of influenza virus (viral RNA, bDNA), class symbols, read-out: EC50 (mean all)

Row | Structure (SMILES) | IC50 [1, 3] [µM] | EC50 [2, 4] [µM] | other results
1 | CCN1CCCC[C@H](Nc2nc(-c3c[nH]c4ncc(Cl)cc34)ncc2F)C1=O [Compound 462] | – | – | IC50 ([1]; Influenza A virus, PR/8, MDCK, mean all, A/PR/8/34 infected MDCK cells, CPE assay, read-out: IC50): 5 to 20 µM; EC50 ([2]; Influenza A virus, PR/8, MDCK, mean all, A/PR/8/34 influenza virus in MDCK cells, bDNA assay, read-out: EC50): < 5 µM
2 | CCCS(=O)(=O)N1CCCC(Nc2ccnc(-c3c[nH]c4ncc(Cl)cc34)n2)C1 (stereo not shown) [Compound 464] | – | – | IC50 ([1]; mean all, A/PR/8/34 infected MDCK cells, CPE assay, read-out: IC50): < 5 µM; EC50 ([2]; mean all, A/PR/8/34 influenza virus in MDCK cells, bDNA assay, read-out: EC50): < 5 µM
3 | CC(=O)N1CCCC(CNc2ccnc(-c3c[nH]c4ncc(Cl)cc34)n2)C1 (stereo not shown) [Compound 490] | – | – | IC50 ([1]; MDCK cells infected with A/PR/8/34, survival of infected cells, class symbols, read-out: IC50 (mean all)): < 5 µM; EC50 ([2]; MDCK cells infected with A/PR/8/34, replication of influenza virus (viral RNA, bDNA), class symbols, read-out: EC50 (mean all)): < 5 µM
4 | COCCC(=O)N1CCC[C@H](CNc2ccnc(-c3c[nH]c4ncc(Cl)cc34)n2)C1 [Compound 493, (R)-1-(3-((2-(5-chloro-1H-pyrrolo[2,3-b]pyridin-3-yl)pyrimidin-4-ylamino)methyl)piperidin-1-yl)-3-methoxypropan-1-one] | < 5 | < 5 | –
5 | CC(=O)N1CCCC(Nc2nc(-c3c[nH]c4ncc(Cl)cc34)ncc2F)CC1 (stereo not shown) [Compound 497, 1-(4-(2-(5-chloro-1H-pyrrolo[2,3-b]pyridin-3-yl)-5-fluoropyrimidin-4-ylamino)azepan-1-yl)ethanone] | < 5 | < 5 | –
6 | CN(C)C(=O)N1CCCC(Nc2nc(-c3c[nH]c4ncc(Cl)cc34)ncc2F)CC1 (stereo not shown) [Compound 499, 4-(2-(5-chloro-1H-pyrrolo[2,3-b]pyridin-3-yl)-5-fluoropyrimidin-4-ylamino)-N,N-dimethylazepane-1-carboxamide] | < 5 | < 5 | –
7 | O=C1NCCCC[C@@H]1Nc1ccnc(-c2c[nH]c3ncc(Cl)cc23)n1 [Compound 500] | < 5 | < 5 | –
8 | O=C1NCCCC[C@@H]1Nc1nc(-c2c[nH]c3ncc(C(F)(F)F)cc23)ncc1F [Compound 502, (S)-3-(5-fluoro-2-(5-(trifluoromethyl)-1H-pyrrolo[2,3-b]pyridin-3-yl)pyrimidin-4-ylamino)azepan-2-one] | < 5 | < 5 | –
9 | CC1(C)CCC[C@H](Nc2nc(-c3c[nH]c4ncc(Cl)cc34)ncc2F)C(=O)N1 [Compound 504] | 5 to 20 | < 5 | –
10 | CNC(=O)N1CCCC(Nc2nc(-c3c[nH]c4ncc(Cl)cc34)ncc2F)CC1 (stereo not shown) [Compound 506, 4-(2-(5-chloro-1H-pyrrolo[2,3-b]pyridin-3-yl)-5-fluoropyrimidin-4-ylamino)-N-methylazepane-1-carboxamide] | < 5 | < 5 | –
11 | NC(=O)N1CCC[C@H](Nc2nc(-c3c[nH]c4ncc(Cl)cc34)ncc2F)C1 [Compound 507] | < 5 | < 5 | –
12 | NC(=O)N1CCCC(Nc2nc(-c3c[nH]c4ncc(Cl)cc34)ncc2F)CC1 (stereo not shown) [Compound 509, 4-(2-(5-chloro-1H-pyrrolo[2,3-b]pyridin-3-yl)-5-fluoropyrimidin-4-ylamino)azepane-1-carboxamide] | < 5 | < 5 | –
13 | NC(=O)N1CC(Nc2nc(-c3c[nH]c4ncc(Cl)cc34)ncc2F)C1 [Compound 512] | > 20 | 5 to 10 | –
14 | O=C1NCCOCC1Nc1nc(-c2c[nH]c3ncc(Cl)cc23)ncc1F (stereo not shown) [Compound 513, 6-(2-(5-chloro-1H-pyrrolo[2,3-b]pyridin-3-yl)-5-fluoropyrimidin-4-ylamino)-1,4-oxazepan-5-one] | 5 to 20 | < 5 | –
15 | OC1CCCC(Nc2nc(-c3c[nH]c4ncc(Cl)cc34)ncc2F)C1 [Compound 524, (3S)-3-((2-(5-chloro-1H-pyrrolo[2,3-b]pyridin-3-yl)-5-fluoropyrimidin-4-ylamino)cyclohexanol] | < 5 | < 5 | –
16 | OCC(O)CN1CCCC(Nc2nc(-c3c[nH]c4ncc(Cl)cc34)ncc2F)C1 [Compound 525, 3-((S)-3-((2-(5-chloro-1H-pyrrolo[2,3-b]pyridin-3-yl)-5-fluoropyrimidin-4-ylamino)piperidin-1-yl)propane-1,2-diol] | < 5 | < 5 | –
17 | COC(=O)N1CCOCC1CNc1nc(-c2c[nH]c3ncc(Cl)cc23)ncc1F (stereo not shown) [Compound 526, Methyl 3-((2-(5-chloro-1H-pyrrolo[2,3-b]pyridin-3-yl)-5-fluoropyrimidin-4-ylamino)methyl)morpholine-4-carboxylate] | 5 to 20 | < 5 | –
18 | CCOC(=O)N1CCOCC1CNc1nc(-c2c[nH]c3ncc(Cl)cc23)ncc1F (stereo not shown) [Compound 527, Ethyl 3-((2-(5-chloro-1H-pyrrolo[2,3-b]pyridin-3-yl)-5-fluoropyrimidin-4-ylamino)methyl)morpholine-4-carboxylate] | > 20 | > 10 | –
19 | C=CCOC(=O)N1CCOCC1CNc1nc(-c2c[nH]c3ncc(Cl)cc23)ncc1F (stereo not shown) [Compound 528, Allyl 3-((2-(5-chloro-1H-pyrrolo[2,3-b]pyridin-3-yl)-5-fluoropyrimidin-4-ylamino)methyl)morpholine-4-carboxylate] | 5 to 20 | > 10 | –
20 | CC(C)C(=O)N1CCOCC1CNc1nc(-c2c[nH]c3ncc(Cl)cc23)ncc1F (stereo not shown) [Compound 529, 1-(3-((2-(5-chloro-1H-pyrrolo[2,3-b]pyridin-3-yl)-5-fluoropyrimidin-4-ylamino)methyl)morpholino)-2-methylpropan-1-one] | 5 to 20 | > 10 | –
